Laboratory results as given in patent EP1352247B1, “ASSAY METHODS FOR IDENTIFYING COMPOUNDS WHICH MAY PROTECT STRATIFIED SQUAMOUS EPITHELIUM AGAINST DAMAGE BY NOXIOUS SUBSTANCES” (The Administrators of the Tulane Educational Fund, priority 2000, dated 2002).
Each block holds one compound with its values, some of them ahead of it.

Legend:
esophageal epithelium = details: cited from earlier work
[1] = molecular target: T1, extracellular domain of human Uvomorulin/E-Cadherin (Homo sapiens, UniProt P12830); assay: Human E-cadherin EIA kit: competition with Mab binding to the extracellular domain of E-cadherin; details: for % Binding: Mab binding vs vehicle control = 100
T1 construct: the approximately 80 kD extracellular domain of Uvomorulin/E-Cadherin provided in the E-cadherin EIA kit; purchased Zymed Laboratories, San Francisco, CA
T1 sequence (P12830 155-709 limits assumed): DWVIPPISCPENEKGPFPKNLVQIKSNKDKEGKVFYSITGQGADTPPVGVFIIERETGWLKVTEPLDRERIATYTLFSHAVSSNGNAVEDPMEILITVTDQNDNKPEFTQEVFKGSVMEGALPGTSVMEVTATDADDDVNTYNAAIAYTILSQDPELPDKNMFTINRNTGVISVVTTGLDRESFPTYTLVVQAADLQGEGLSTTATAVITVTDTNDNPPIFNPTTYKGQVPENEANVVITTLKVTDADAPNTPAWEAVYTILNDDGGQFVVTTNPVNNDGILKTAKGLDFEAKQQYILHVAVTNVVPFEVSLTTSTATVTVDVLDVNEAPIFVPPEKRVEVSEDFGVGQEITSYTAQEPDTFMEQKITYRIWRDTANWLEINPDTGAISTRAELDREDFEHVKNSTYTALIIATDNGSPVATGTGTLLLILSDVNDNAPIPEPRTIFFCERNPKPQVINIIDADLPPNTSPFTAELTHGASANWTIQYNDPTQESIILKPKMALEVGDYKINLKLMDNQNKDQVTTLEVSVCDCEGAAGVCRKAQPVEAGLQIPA
Source text: The kit enables the antigen to be exposed to agents or antibodies prior to exposure to the standard Mab to the extracellular domain of Uvomorulin/E-cadherin. The ability of the agent or antibody to block the binding of the Mab to the extracellular domain of Uvomorulin/E-cadherin can then be used to determine if competition for binding sites on the antigen has occurred. Comparative binding is based on the quantity of binding observed when the Mab to Uvomorulin/E-cadherin is placed in contact with antigen in the absence of prior exposure to test agent or antibody. The experimental control for test agents is vehicle (normal Ringer solution) and for monoclonal or polyclonal antibodies is an equivalent amount of nonspecific immune serum globulin (IgG). The quantity of binding of the Mab to Uvomorulin/E-cadherin to antigen in the absence of test agent or test antibody is labeled as control and whose value is normalized to 100%.
The Human E-cadherin EIA kit (Zymed Laboratories, San Francisco, CA) was used as in the method described in Example 5 to determine binding of test compounds, SITS, SOS, CDDD-1192, CDDD-1193 and 1,3-benzene disulfonic acid (1,3-BDSA) to the approximately 80 kD extracellular domain of Uvomorulin/E-Cadherin provided in the E-cadherin EIA kit. This was done by adding the extracellular domain of human Uvomorulin/E-Cadherin to a solution with varying concentrations of the compounds in the nanomolar to millimolar range or with vehicle (control, normal Ringer solution) for […]. Following incubation for 2 hrs, the solution is added to a solid phase microtiter plate, provided in the EIA kit, to which a mouse monoclonal anti-human Uvomorulin/E-cadherin antibody (Zymed Laboratories, San Francisco, CA) is bound. This permits antigen with epitopes unoccupied by test compound to bind to the plate. After washing the plate with Tris buffer containing 0.1 % Tween-20 (Promega, Madison, Wisconsin) and 5 mM calcium chloride, the second mouse monoclonal anti-human Uvomorulin/E-cadherin antibody labeled with peroxidase is used to tag the bound antigen. After an additional incubation for 1 hr and washing with Tris buffer, the peroxidase is detected with substrate (hydrogen peroxide and tetramethyl-benzidine in buffered solution, as included in the EIA test kit) by incubating for 15 min at room temperature and stopping of the reaction with 1N […]. […] The amount of Uvomorulin/E-cadherin is quantitated by measuring absorbance at 450 nm within an hour following development using an EIA plate reader (Vmax Plate Reader, Molecular Devices, Sunnyvale, CA). The degree of binding of a compound to the extracellular domain of Uvomorulin/E-cadherin is determined by the reduction in antigen detection in the plate exposed to test compound compared to that for the control plate (100%) where no compound was present (Table 2).

[2] = test system: rabbit esophageal epithelium
Protocol: Sections of rabbit esophageal epithelium, mounted in Ussing chambers and stabilized for 45 min, were exposed both luminally and serosally to calcium-free solution containing EDTA, 3 mM.
Sections of rabbit esophageal epithelium were mounted in Ussing chambers and exposed luminally to trypsin, 0.01%, in the presence or absence of a calcium-free bathing solution.
Sections of rabbit esophageal epithelium were mounted in Ussing chambers and exposed luminally to either SITS, 4 mM, or vehicle (Ringer) as control for 30 min.

[3] = test system: rabbit esophageal epithelium; assay: Junctional resealing (recovery of R after calcium restoration or return to isoosmolality) in Ussing chambers; type: cell-based; details: luminal 4 mM for 30 min and during calcium-free period; after restoration of calcium (0 mM SITS), n=3
Source text: When calcium-containing (normal Ringer) solution was restored to the bathing solutions after 1, 2, or 4 hrs of calcium-free exposure, there was a progressive return of R toward initial baseline values, with complete reversibility observed for tissue exposed to calcium-free solution for 1 hr and 2 hr exposures and an 80% recovery in R for tissue exposed to calcium-free for 4 hrs within 1 hr of restoring calcium to the baths.
Sections of rabbit esophageal epithelium prepared as in Example 1 were exposed luminally and serosally to a calcium-free solution containing 3 mM EDTA to open the junctions as shown by the progressive decline in R to 60±4% and 65±4% of initial R for experimental and control tissues, respectively, by 2 hrs (n = 8 for each group, p > 0.05). Tissues were then treated luminally for 20 min with either 10 µg/ml of a monoclonal antibody (Mab) to Uvomorulin/E-cadherin (Sigma Chemical, St. Louis, MO) or, as control, to 10 µg/ml of nonspecific immune serum globulin (IgG). Following exposure to Mab or IgG, a calcium-containing (normal Ringer) solution was restored to the bathing solutions and the recovery of R monitored over time.
The intercellular junctions of stratified squamous epithelium can also be opened by exposure to hypertonic saline. […]

SMILES: O=S(=O)(O)c1cccc(S(=O)(=O)O)c1 [1,3 BDSA, 1,3-benzene disulfonic acid]
effect against acid injury (esophageal epithelium; 4 mM, as shown in U.S. Patent No. 5,189,056 and 5,374,537): ineffective against acid injury | % Binding ([1]; agent 4 mM): 104±3%

% Binding ([1]; agent 0.4 uM): 103±6% | % Binding ([1]; agent 4 mM): 77±13 %
SMILES: O=S(=O)(O)OCC(OS(=O)(=O)O)C(Oc1ccccc1)c1ccc(N=C=S)cc1 (centres unmarked) [CDDD-1192, disodium 3-(4-isothiocyanatophenyl)-3 phenoxypropane-1,2-disulfate]

SMILES: O=S(=O)(O)OCC(OS(=O)(=O)O)C(Oc1ccc(N=C=S)cc1)c1ccc(N=C=S)cc1 (centres unmarked) [CDDD-1193, disodium 3-(4-isothiocyanatophenoxy)-3-(4-isothiocyanatophenyl)propane-1,2-disulfate]
% Binding ([1]; agent 40 nM): 110±6% | % Binding ([1]; agent 40 uM): 83±3 % | % Binding ([1]; agent 4 mM): 38±0.75 %

SMILES: O=C(O)CN(CCN(CC(=O)O)CC(=O)O)CC(=O)O [EDTA]
effect on R ([2]; 3 mM alone, over the described time frame (up to 4 hrs)): no effect on R

SMILES: CC(=O)Nc1ccc(C=Cc2ccc(N=C=S)cc2S(=O)(=O)O)c(S(=O)(=O)O)c1 [SITS, 4-acetamido-4'-isothiocyano-2,2'-stilbene disulfonate]
recovery of R [3]: 75±3% | R declined to ([2]; calcium-free solution (3 mM EDTA) with 4 mM SITS, over 2 hr): 68±3% | % Binding ([1]; agent 40 uM): 77±3 % | % Binding ([1]; agent 4 mM): 26±3 % | % Binding ([1]; agent 8 mM): 20±3 %

binding to the extracellular domain of Uvomorulin/E-cadherin / inhibition of Mab binding (in words) [1]: dose-dependently binds | % Binding ([1]; agent 4 mM): 83±0.3 % | % Binding ([1]; agent 10 mM): 76±0.3 %
SMILES: O=S(=O)(O)OC[C@H]1O[C@@](COS(=O)(=O)O)(O[C@H]2O[C@H](COS(=O)(=O)O)[C@@H](OS(=O)(=O)O)[C@H](OS(=O)(=O)O)[C@H]2OS(=O)(=O)O)[C@@H](OS(=O)(=O)O)[C@@H]1OS(=O)(=O)O [SOS, sucrose octasulfate]
protection against acid-induced injury, reversibility (esophageal epithelium): irreversibly protect
